Tested on: Halo-PCNA U2OS cells
Experiment: Cell cycle phase assignment by machine learning model in Halo-PCNA U2OS cells
Assay type: cell-based
Conditions: 2 mM Thymidine (S-phase block) or RO-3306 (G2-M block) per FIG. 20B legend
Experimental: Time-lapse microscopy was conducted on Halo-PCNA labeled with 50 nM JFX650, to achieve near-saturating labeling, for 12 hours at 12 frames per hour (FIG. 21A). A machine learning model was then trained using both manually assigned cell stages and time-based progression resulting in both a G1, early S, mid S, late S, G2 and mitosis classifier as well as a regression prediction across the continuum of the cell cycle (FIG. 21B). The predicted cell cycle classification performed well as compared to manual annotation (FIG. 21C). Clear progression of individual cells through the cell cycle was observed when regression prediction was plotted across the time series (FIG. 21D). […] When cells in each cell phase were analyzed separately, it became apparent that the slow-moving population of PCNA was exclusively found in cell predicted to be in S-phase and that there was a marked decrease in the fast-moving population (FIG. 20E). Mean diffusion coefficient of PCNA was then measured for 4,081 individual cells to characterize heterogeneity across the cell population, which is described in large part by cell cycle (FIG. 20F).
Cell cycle as provided above can be automatically determined using an image (e.g., an image of JF549-labeled PCNA). […]

Compound | fraction of cells assigned to cell phases
O=C1NC(=NCc2cccs2)S/C1=C\c1ccc2ncccc2c1 [RO-3306] | expected enrichment in the fraction of cells assigned to the respective cell phases
Cc1cn([C@H]2C[C@H](O)[C@@H](CO)O2)c(=O)[nH]c1=O [thymidine] | expected enrichment in the fraction of cells assigned to the respective cell phases

From US20260168987A1, “OBLIQUE LINE SCANNER SYSTEMS AND METHODS FOR HIGH THROUGHPUT SINGLE MOLECULE TRACKING IN LIVING CELLS” (EIKON THERAPEUTICS, INC., priority 2022, published 2026)
